What all share (test): Bactericidal effect on N. gonorrhoeae strains
Common to all, as to assay type: cell-based

One experiment relates to N. gonorrhoeae L 1004. The settings on record: Neisseria gonorrhoeae, L1004, clinical isolate.
The next experiment deals with N. gonorrhoeae L 1001. The settings on record: Neisseria gonorrhoeae, L1001, clinical isolate.
Another experiment concerns N. gonorrhoeae L 1596. As to conditions: Neisseria gonorrhoeae, L1596, clinical isolate, spectinomycin-resistant.
A further experiment relates to N. gonorrhoeae L 1605. As to conditions: Neisseria gonorrhoeae, L1605, clinical isolate, penicillin-resistant.
The subject of experiment [1] is N. gonorrhoeae L 1007 (CTC 6820). As to conditions: Neisseria gonorrhoeae.
For another experiment, the system named is N. gonorrhoeae L 1601. As to conditions: Neisseria gonorrhoeae, L1601, clinical isolate, penicillin-resistant.
[2] abbreviates: 24 h, 99.9% of initial inoculum killed.

≈ marks a conversion by molar mass, not a printed value.

Regarding `CN[C@@H]1[C@H](O)[C@H](NC)[C@H]2O[C@@]3(O)C(=O)C[C@@H](C)O[C@H]3O[C@@H]2[C@H]1O` [Spectinomycin], the MBC (as a rule, the lowest tested concentration that kills the bacteria rather than only halting them) is 32 µg/mL (≈ 96.3 µM) with N. gonorrhoeae L 1004 (setting [2]); 32 µg/mL (≈ 96.3 µM) against N. gonorrhoeae L 1001 (setting [2]); greater than 128 µg/mL with N. gonorrhoeae L 1596 (setting [2]); 32 µg/mL (≈ 96.3 µM) in the experiment with N. gonorrhoeae L 1605 (setting [2]); 16 µg/mL (≈ 48.1 µM) in experiment [1] (setting [2]); 16 µg/mL (≈ 48.1 µM) in the experiment on N. gonorrhoeae L 1601 (setting [2]). The MIC (as a rule, the smallest concentration in the dilution series that meets the test's criterion for growth inhibition) with N. gonorrhoeae L 1004 (48 h) is 16 µg/mL (≈ 48.1 µM); in the experiment with N. gonorrhoeae L 1001 (48 h) it was 16 µg/mL (≈ 48.1 µM); against N. gonorrhoeae L 1596 (48 h), greater than 128 µg/mL; in the experiment on N. gonorrhoeae L 1605 (48 h) it was 32 µg/mL (≈ 96.3 µM); in experiment [1] (48 h), 16 µg/mL (≈ 48.1 µM); in the experiment on N. gonorrhoeae L 1601 (48 h) it was 16 µg/mL (≈ 48.1 µM).

(Values after patent US4935238A, “Antibiotic A 40926 complex and its pure factors PA, PB, A, B and B0” (Gruppo Lepetit, S.p.A., priority 1984, dated 1990).)
